One assay addresses Melanocortin receptor 5 (Homo sapiens, UniProt P33032). The assay can be described thus: Displacement of [125I]-NDP-alpha-MSH from human MC5R expressed in CHO cells by Topcount beta counter analysis. It is filed as cell-based. In general terms: In a radioligand displacement assay an active substance lowers the binding of a labelled ligand.
The target in a further assay is Melanocortin receptor 3 (Homo sapiens, UniProt P41968). The assay can be described thus: Displacement of [125I]-NDP-alpha-MSH from human MC3R expressed in HEK293 cells by Topcount beta counter analysis. It is filed as cell-based.
Chain of Melanocortin receptor 3 (P41968 whole entry): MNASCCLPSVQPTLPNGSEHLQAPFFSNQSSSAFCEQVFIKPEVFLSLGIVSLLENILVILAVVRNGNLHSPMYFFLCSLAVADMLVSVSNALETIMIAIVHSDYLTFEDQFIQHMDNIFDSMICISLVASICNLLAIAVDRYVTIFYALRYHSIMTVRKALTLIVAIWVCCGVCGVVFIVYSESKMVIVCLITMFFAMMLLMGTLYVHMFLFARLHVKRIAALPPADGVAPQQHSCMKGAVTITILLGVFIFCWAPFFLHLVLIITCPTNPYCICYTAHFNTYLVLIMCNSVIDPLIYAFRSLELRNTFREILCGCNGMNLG
In assay [1] the target is Melanocyte-stimulating hormone receptor (Homo sapiens, UniProt Q01726). The assay can be described thus: Displacement of [125I]-NDP-alpha-MSH from human MC1R expressed in CHO cells by Topcount beta counter analysis. It is filed as cell-based.
Chain of Melanocyte-stimulating hormone receptor (Q01726 whole entry): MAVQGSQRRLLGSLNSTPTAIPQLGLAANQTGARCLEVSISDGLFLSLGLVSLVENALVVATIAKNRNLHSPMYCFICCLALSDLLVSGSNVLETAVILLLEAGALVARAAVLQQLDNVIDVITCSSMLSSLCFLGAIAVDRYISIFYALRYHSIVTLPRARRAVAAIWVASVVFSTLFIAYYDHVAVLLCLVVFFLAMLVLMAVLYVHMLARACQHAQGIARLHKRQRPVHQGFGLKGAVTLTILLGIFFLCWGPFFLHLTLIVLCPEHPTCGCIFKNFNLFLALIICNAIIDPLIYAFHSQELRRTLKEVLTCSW
In assay [2] the target is T1, Melanocortin receptor 4 (Homo sapiens, UniProt P32245). Kind of assay: Displacement of [125I]-NDP-alpha-MSH from human MC4R expressed in CHO cells by Topcount beta counter analysis. It is filed as cell-based.
T1 sequence (P32245 whole entry): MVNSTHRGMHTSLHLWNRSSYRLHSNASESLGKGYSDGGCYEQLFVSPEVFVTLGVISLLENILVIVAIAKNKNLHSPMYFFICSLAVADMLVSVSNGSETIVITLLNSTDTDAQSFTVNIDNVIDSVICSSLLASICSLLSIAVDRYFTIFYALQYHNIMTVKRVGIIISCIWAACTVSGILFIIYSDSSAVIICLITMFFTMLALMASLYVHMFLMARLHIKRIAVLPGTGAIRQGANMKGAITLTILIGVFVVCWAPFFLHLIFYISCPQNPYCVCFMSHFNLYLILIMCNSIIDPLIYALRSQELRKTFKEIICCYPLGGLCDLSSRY
For assay [3], the species on record is Homo sapiens. The assay can be described thus: Selectivity ratio of Ki for human MC3R expressed in HEK293 cells to Ki for human MC4R expressed in CHO cells. The assay is classed as cell-based.
Assay [4] addresses T2, Type-1 angiotensin II receptor (Homo sapiens) (UniProt P30556).
T2 sequence (whole entry): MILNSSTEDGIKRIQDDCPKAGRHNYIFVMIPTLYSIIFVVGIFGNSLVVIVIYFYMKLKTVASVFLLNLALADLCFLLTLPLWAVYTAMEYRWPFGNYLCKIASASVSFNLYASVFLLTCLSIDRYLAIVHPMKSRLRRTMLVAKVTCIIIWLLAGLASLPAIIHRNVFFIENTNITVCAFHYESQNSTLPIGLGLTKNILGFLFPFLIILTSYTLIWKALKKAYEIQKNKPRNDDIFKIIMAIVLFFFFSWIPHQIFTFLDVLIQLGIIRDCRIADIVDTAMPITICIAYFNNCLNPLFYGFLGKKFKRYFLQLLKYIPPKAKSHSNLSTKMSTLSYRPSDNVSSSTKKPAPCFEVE
The assay can be described thus: Inhibition of human AT1R expressed in CHO cells at 50 uM by Topcount beta counter analysis relative to control. It is filed as cell-based.

Assay [5] concerns the target T1, Melanocortin receptor 4. Kind of assay: Antagonist activity at human MC4R in HEK293SL cells assessed as beta-arrestin2 activation incubated for 30 mins in presence of alpha-MSH by BRET assay. The settings on record: filed as antagonist. The assay is classed as functional, cell-based. Background: BRET reads energy transfer from a luciferase to a nearby fluorophore.

The species entered for assay [6] is Homo sapiens. Kind of assay: Selectivity ratio of Ki for human MC1R expressed in CHO cells to Ki for human MC4R expressed in CHO cells. It is filed as cell-based.
The target in assay [7] is T1, Melanocortin receptor 4. Kind of assay: Antagonist activity at human MC4R in HEK293SL cells assessed as G15 activation incubated for 30 mins in presence of NDP-alpha-MSH by BRET assay. The assay is classed as functional, cell-based. The settings on record: filed as antagonist.
Assay [8] has as its target T1, Melanocortin receptor 4. The assay can be described thus: Antagonist activity at human MC4R in HEK293SL cells assessed as Gs activation incubated for 30 mins in presence of alpha-MSH by BRET assay. The assay is classed as functional, cell-based. As to conditions: filed as antagonist.
The target in assay [9] is T1, Melanocortin receptor 4. Kind of assay: Antagonist activity at human MC4R in HEK293SL cells assessed as G15 activation incubated for 30 mins in presence of alpha-MSH by BRET assay. It is filed as functional, cell-based. As to conditions: filed as antagonist.
The target of assay [10] is T1, Melanocortin receptor 4. The assay can be described thus: Antagonist activity at human MC4R in HEK293SL cells assessed as Gs activation incubated for 30 mins in presence of NDP-alpha-MSH by BRET assay. As to conditions: filed as antagonist. It is filed as functional, cell-based.
For assay [11], the target named is T1, Melanocortin receptor 4. The assay can be described thus: Antagonist activity at human MC4R in HEK293SL cells assessed as Gs activation at 30 uM incubated for 30 mins in presence of alpha-MSH by BRET assay. The assay is classed as functional, cell-based. The settings on record: filed as antagonist.
The target in assay [12] is T1, Melanocortin receptor 4. Kind of assay: Antagonist activity at human MC4R in HEK293SL cells assessed as beta-arrestin2 activation incubated for 30 mins in presence of NDP-alpha-MSH by BRET assay. It is filed as functional, cell-based. The settings on record: filed as antagonist.
For assay [13], the species on record is Homo sapiens. Kind of assay: Selectivity ratio of Ki for human […] expressed in CHO cells to Ki for human MC4R expressed in CHO cells. The assay is classed as cell-based.

Calls of active or inactive are those of the source. No cut-off for these calls is given here. Where a SMILES comes first, the peptide text is derived from it. Bridges are numbered along the chain shown (N, C = ends).

Chain of Melanocortin receptor 5 (P33032 whole entry): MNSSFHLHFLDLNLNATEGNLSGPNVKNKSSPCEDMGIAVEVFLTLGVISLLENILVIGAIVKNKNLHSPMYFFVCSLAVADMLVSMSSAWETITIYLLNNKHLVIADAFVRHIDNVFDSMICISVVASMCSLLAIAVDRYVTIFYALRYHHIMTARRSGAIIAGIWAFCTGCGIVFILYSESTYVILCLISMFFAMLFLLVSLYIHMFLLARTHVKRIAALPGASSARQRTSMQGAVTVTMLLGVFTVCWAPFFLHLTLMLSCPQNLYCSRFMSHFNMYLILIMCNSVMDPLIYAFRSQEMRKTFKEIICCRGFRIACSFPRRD

On to `CC(C)C[C@H](NC(=O)[C@H](CCCCN)NC(=O)[C@H](Cc1ccccc1)NC(=O)[C@H](CCC(N)=O)NC(=O)[C@@H]1CSSC[C@H](NC(=O)[C@H](Cc2ccc(O)cc2)NC(=O)[C@H](Cc2c[nH]cn2)NC(=O)[C@H](Cc2ccccc2)NC(=O)[C@@H](N)CC(C)C)C(=O)N[C@@H](CCC(N)=O)C(=O)N[C@@H](C(C)C)C(=O)N[C@@H](CCC(N)=O)C(=O)N[C@@H](C(C)C)C(=O)N2CCC[C@H]2C(=O)N2CCC[C@H]2C(=O)NCC(=O)N[C@@H](Cc2ccccc2)C(=O)N[C@@H](CCCCN)C(=O)NCC(=O)N[C@@H](CCCCN)C(=O)N[C@@H](Cc2ccccc2)C(=O)N1)C(=O)N[C@@H](CCCNC(=N)N)C(=O)N1CCC[C@H]1C(=O)N1CCC[C@H]1C(=O)O` (H-LFHYCQVQVPPGFKGKFCQFKLRPP-OH; disulfide 5-18), for which the Ki on Melanocortin receptor 5 (read-out: pKi (converted)) is 224 nM; at Melanocortin receptor 3 (read-out: pKi (converted)), 282 nM; in assay [1] (read-out: pKi (converted)), 724 nM; at Melanocortin receptor 4 [2] (read-out: pKi (converted)), 60.3 nM.
For the compound `CC(C)C[C@H](NC(=O)[C@H](CCCCN)NC(=O)[C@H](Cc1ccccc1)NC(=O)[C@H](CCC(N)=O)NC(=O)[C@@H]1CSSC[C@H](NC(=O)[C@H](CCC(N)=O)NC(=O)[C@@H]2CSSC[C@H](NC(=O)[C@H](Cc3ccc(O)cc3)NC(=O)[C@H](Cc3c[nH]cn3)NC(=O)[C@H](Cc3ccccc3)NC(=O)[C@@H](N)CC(C)C)C(=O)N[C@@H](CCC(N)=O)C(=O)N2)C(=O)N2CCC[C@H]2C(=O)N2CCC[C@H]2C(=O)NCC(=O)N[C@@H](Cc2ccccc2)C(=O)N[C@@H](CCCCN)C(=O)NCC(=O)N[C@@H](CCCCN)C(=O)N[C@@H](Cc2ccccc2)C(=O)N1)C(=O)N[C@@H](CCCNC(=N)N)C(=O)N1CCC[C@H]1C(=O)N1CCC[C@H]1C(=O)O` (H-LFHYCQCQCPPGFKGKFCQFKLRPP-OH; disulfide 5-7, 9-18), the Ki is 30 nM on Melanocortin receptor 5 (read-out: Ki); 28.8 nM on Melanocortin receptor 5 (read-out: pKi (converted)); 83 nM on Melanocortin receptor 3 (read-out: Ki); 69.2 nM on Melanocortin receptor 3 (read-out: pKi (converted)); 530 nM in [1] (read-out: Ki); 513 nM in [1] (read-out: pKi (converted)). The Ki at Melanocortin receptor 4 [2] (read-out: Ki) is 45 nM; at Melanocortin receptor 4 [2] (read-out: pKi (converted)), 41.7 nM.
Consider `CC(C)C[C@H](NC(=O)[C@H](CCCCN)NC(=O)[C@H](Cc1ccccc1)NC(=O)[C@H](CCC(N)=O)NC(=O)[C@@H]1CSSC[C@H](NC(=O)[C@H](Cc2ccc(O)cc2)NC(=O)[C@H](Cc2c[nH]cn2)NC(=O)[C@H](Cc2ccccc2)NC(=O)[C@@H](N)CC(C)C)C(=O)N[C@@H](CCC(N)=O)C(=O)N[C@H]2CSSC[C@H](NC(=O)[C@H](CCC(N)=O)NC2=O)C(=O)N2CCC[C@H]2C(=O)N2CCC[C@H]2C(=O)NCC(=O)N[C@@H](Cc2ccccc2)C(=O)N[C@@H](CCCCN)C(=O)NCC(=O)N[C@@H](CCCCN)C(=O)N[C@@H](Cc2ccccc2)C(=O)N1)C(=O)N[C@@H](CCCNC(=N)N)C(=O)N1CCC[C@H]1C(=O)N1CCC[C@H]1C(=O)O` (H-LFHYCQCQCPPGFKGKFCQFKLRPP-OH; disulfide 5-18, 7-9), for which the Ki on Melanocortin receptor 5 (read-out: Ki) was 41 nM; at Melanocortin receptor 5 (read-out: pKi (converted)) it was 28.8 nM; at Melanocortin receptor 3 (read-out: Ki), 110 nM; on Melanocortin receptor 3 (read-out: pKi (converted)), 97.7 nM; in assay [1] (read-out: Ki), 554 nM; in assay [1] (read-out: pKi (converted)), 490 nM. Moreover, the Ki on Melanocortin receptor 4 [2] (read-out: Ki) is 48 nM; on Melanocortin receptor 4 [2] (read-out: pKi (converted)), 43.7 nM.
Broadly, the inhibition is how much of the control response was suppressed. Higher therefore signals a strong effect. One may read the Kb as the affinity of an antagonist, worked out from how it opposes an agonist. In the case of H-LFHYQQKQKPPGFKGKFQQFKLRPP-OH, the Ratio Ki in the assay filed under Homo sapiens [3] came to 3; in the assay filed under Homo sapiens [6] it was 13; in the assay filed under Homo sapiens [13], 13. For the same compound, the Ki is 195 nM at Melanocortin receptor 5 (read-out: Ki); 182 nM on Melanocortin receptor 5 (read-out: pKi (converted)); 41 nM on Melanocortin receptor 3 (read-out: Ki); 38.9 nM at Melanocortin receptor 3 (read-out: pKi (converted)); 197 nM in assay [1] (read-out: Ki); 182 nM in assay [1] (read-out: pKi (converted)). Also, the Ki on Melanocortin receptor 4 [2] (read-out: Ki) was 15 nM; on Melanocortin receptor 4 [2] (read-out: pKi (converted)), 13.5 nM. Besides, the inhibition in assay [4] worked out at 77%. In addition, the antagonist equilibrium constant (Kb) on Melanocortin receptor 4 [5] was found to be 33000 nM; on Melanocortin receptor 4 [7], 3000 nM; at Melanocortin receptor 4 [8], 28000 nM; on Melanocortin receptor 4 [9], 6000 nM; at Melanocortin receptor 4 [10] it was 32300 nM; at Melanocortin receptor 4 [12], 3800 nM. Moreover, at Melanocortin receptor 4 [11], the result was Active.

The values above are taken from ChEMBL document CHEMBL5113520, “From a Cone Snail Toxin to a Competitive MC4R Antagonist” (J Med Chem, 2022).
